# In patent US20060106107A1, “L-tartrate salt of N-1-Adamantyl-2-{3-[(2R)-2-({(2R)-2-hydroxy-2-[4-hydroxy-3-(hydroxymethyl)phenyl]ethyl}amino)propyl] phenyl}acetamide” (priority 2004, published 2006):
# Molecular target: T1, human β2 adrenergic receptor (Homo sapiens, UniProt P07550)
# T1 construct: expressed in transfected cells; host or cells: CHO (Chinese Hamster Ovary) cells, CHOhβ2
# Experiment: cAMP Flashplate assay in CHO cells recombinantly expressing the human β2 adrenergic receptor (agonist potency)
# Assay type: cell-based
# Settings: CHOhβ2 cells, 1 hour incubation, 125I-cAMP Flashplate; data expressed as % Isoprenaline activity, four parameter sigmoid fit
# Protocol: According to another alternative, the agonist potency for the β2 receptor of the L-tartrate salt of the invention may also be determined by the measure of the concentration of compound according to the present invention required to produce half maximal effect (EC50) for the β2 receptor.
# 10 mM/100% DMSO (dimethylsulfoxide) stock of compound is diluted to required top dose in 4% DMSO. This top dose is used to construct a 10-point semi-log dilution curve, all in 4% DMSO. Isoprenaline (Sigma, I-5627) was used as a standard in every experiment and for control wells on each plate. Data was expressed as % Isoprenaline response. […]
# 25 μl/well each dose of compound was transferred into a cAMP-Flashplate® (NEN, SMP004B), with 1% DMSO as basal controls and 100 nM Isoprenaline as max controls. […] The amount of ^125I-cAMP bound to the Flashplate® was quantified using a Topcount NXT (Packard), normal counting efficiency for 1 minute. Dose-response data was expressed as % Isoprenaline activity and fitted using a four parameter sigmoid fit.
# T1 sequence (P07550 whole entry): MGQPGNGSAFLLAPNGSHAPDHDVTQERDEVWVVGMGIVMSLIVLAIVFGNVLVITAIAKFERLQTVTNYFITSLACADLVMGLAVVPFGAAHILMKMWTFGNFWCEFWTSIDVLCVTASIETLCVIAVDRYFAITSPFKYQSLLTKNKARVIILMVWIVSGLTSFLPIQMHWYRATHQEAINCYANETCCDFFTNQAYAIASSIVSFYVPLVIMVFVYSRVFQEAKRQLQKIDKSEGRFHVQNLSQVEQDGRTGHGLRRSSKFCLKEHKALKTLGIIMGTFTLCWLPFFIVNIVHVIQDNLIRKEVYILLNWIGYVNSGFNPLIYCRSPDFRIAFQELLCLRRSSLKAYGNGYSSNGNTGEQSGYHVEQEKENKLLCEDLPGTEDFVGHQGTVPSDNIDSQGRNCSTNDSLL
smiles,measurement,value
"C[C@H](Cc1cccc(CC(=O)NC23CC4CC(CC(C4)C2)C3)c1)NC[C@H](O)c1ccc(O)c(CO)c1 [example 1, N-1-Adamantyl-2-{3-[(2R)-2-({(2R)-2-hydroxy-2-[4-hydroxy-3-(hydroxymethyl)phenyl]ethyl}amino)propyl]phenyl}acetamide L-tartrate]",EC50,76 pM
